# Experimental data reported in patent US4882313A, “Carboxamide derivatives of glycopeptides” (SmithKline Beckman Corporation, priority 1987, dated 1989).
# Key:
# Experiment in all cases: standard microtiter assay, minimum inhibitory concentration
# Type in all cases: cell-based
# Staphylococcus aureus = conditions: for minimum inhibitory concentration of antibiotic, Test Organism 1: Test Organism 1, strain of Staphylococcus aureus; for minimum inhibitory concentration of antibiotic, Test Organism 2: Test Organism 2, strain of Staphylococcus aureus; for minimum inhibitory concentration of antibiotic, Test Organism 3: Test Organism 3, strain of Staphylococcus aureus; for minimum inhibitory concentration of antibiotic, Test Organism 4: Test Organism 4, strain of Staphylococcus aureus; for minimum inhibitory concentration of antibiotic, Test Organism 5: Test Organism 5, strain of Staphylococcus aureus
# Source text: (§1) Representative results of standard microtiter assays are reported in Table 1 which follows, as the minimum inhibitory concentration of antibiotic (mg/ml). In Table 1, test organisms 1-5 were different strains of Staphylococcus aureus; 6, 8, 11, 13 and 14 were different strains of Staphylococcus epidermidis; 7 was a Staphylococcus haemolyticus; 9 and 10 were different strains of Streptococcus faecalis; and 12 was a Staphylococcus saprophyticus.
# [1] = test system: Staphylococcus saprophyticus; conditions: Test Organism 12, Staphylococcus saprophyticus
# Source text: as §1
# Streptococcus faecalis = conditions: for minimum inhibitory concentration of antibiotic, Test Organism 9: Test Organism 9, strain of Streptococcus faecalis; for minimum inhibitory concentration of antibiotic, Test Organism 10: Test Organism 10, strain of Streptococcus faecalis
# Source text: as §1
# [2] = test system: Staphylococcus haemolyticus; conditions: Test Organism 7, Staphylococcus haemolyticus
# Source text: as §1
# [3] = test system: Staphylococcus epidermidis; design: minimum inhibitory concentration of antibiotic, Test Organism 8: unit not given here; conditions: for minimum inhibitory concentration of antibiotic, Test Organism 6: Test Organism 6, strain of Staphylococcus epidermidis; for minimum inhibitory concentration of antibiotic, Test Organism 8: Test Organism 8, strain of Staphylococcus epidermidis; for minimum inhibitory concentration of antibiotic, Test Organism 11: Test Organism 11, strain of Staphylococcus epidermidis; for minimum inhibitory concentration of antibiotic, Test Organism 13: Test Organism 13, strain of Staphylococcus epidermidis; for minimum inhibitory concentration of antibiotic, Test Organism 14: Test Organism 14, strain of Staphylococcus epidermidis
# Source text: as §1
Molecule,"minimum inhibitory concentration of antibiotic, Test Organism 1 (Staphylococcus aureus) [µg/mL]","minimum inhibitory concentration of antibiotic, Test Organism 2 (Staphylococcus aureus) [µg/mL]","minimum inhibitory concentration of antibiotic, Test Organism 3 (Staphylococcus aureus) [µg/mL]","minimum inhibitory concentration of antibiotic, Test Organism 4 (Staphylococcus aureus) [µg/mL]","minimum inhibitory concentration of antibiotic, Test Organism 5 (Staphylococcus aureus) [µg/mL]","minimum inhibitory concentration of antibiotic, Test Organism 12 [1] [µg/mL]","minimum inhibitory concentration of antibiotic, Test Organism 9 (Streptococcus faecalis) [µg/mL]","minimum inhibitory concentration of antibiotic, Test Organism 10 (Streptococcus faecalis) [µg/mL]","minimum inhibitory concentration of antibiotic, Test Organism 7 [2] [µg/mL]","minimum inhibitory concentration of antibiotic, Test Organism 6 [3] [µg/mL]","minimum inhibitory concentration of antibiotic, Test Organism 8 [3]","minimum inhibitory concentration of antibiotic, Test Organism 11 [3] [µg/mL]","minimum inhibitory concentration of antibiotic, Test Organism 13 [3] [µg/mL]","minimum inhibitory concentration of antibiotic, Test Organism 14 [3] [µg/mL]"
"CNC1C(=O)NC2C(=O)NC(C(=O)NC3C(=O)NC4C(=O)NC(C(=O)NC(C(=O)O)c5cc(O)cc(O)c5-c5cc4ccc5O)C(O)c4cc(Cl)c(c(Cl)c4)Oc4cc3cc(c4O)Oc3ccc(cc3Cl)C2O)c2cc(cc(O)c2Cl)Oc2cc1ccc2O (stereo not drawn) [Compound 2a, Ardacin aglycone, reference compound]",800,800,400,400,800,1600,800,800,6300,800,3.1,1600,1800,800
"CNC1C(=O)NC2C(=O)NC(C(=O)NC3C(=O)NC4C(=O)NC(C(=O)NC(C(=O)O)c5cc(O)cc(OC6OC(CO)C(O)C(O)C6O)c5-c5cc4ccc5O)C(O)c4cc(Cl)c(c(Cl)c4)Oc4cc3cc(c4O)Oc3ccc(cc3Cl)C2O)c2cc(cc(O)c2Cl)Oc2cc1ccc2O (stereo not drawn) [Compound 2b, Ardacin mannosylaglycone, reference compound]",1600,1600,800,> 1600,1600,3100,800,800,25000,12500,6.3,25000,6300,
"CNC1C(=O)NC2C(=O)NC(C(=O)NC3C(=O)NC4C(=O)NC(C(=O)NC(C(=O)NCCN)c5cc(O)cc(O)c5-c5cc4ccc5O)C(O)c4cc(Cl)c(c(Cl)c4)Oc4cc3cc(c4O)Oc3ccc(cc3Cl)C2O)c2cc(cc(O)c2Cl)Oc2cc1ccc2O (stereo not drawn) [Compound 2e, Ardacin aglycone-(2-aminoethyl amide)]",50,50,50,200,50,50,50,100,50,100,0.1,100,50,50
"CNC1C(=O)NC2C(=O)NC(C(=O)NC3C(=O)NC4C(=O)NC(C(=O)NC(C(=O)O)c5cc(O)cc(OC6OC(CO)C(O)C(O)C6O)c5-c5cc4ccc5O)C(O)c4ccc(c(Cl)c4)Oc4cc3cc(c4OC3OC(C(=O)O)C(O)C(O)C3NC(=O)CCCCCCCCC(C)C)Oc3ccc(cc3)C2O)c2cc(cc(O)c2Cl)Oc2cc1ccc2O (stereo not drawn) [Compound 2p, AAJ-271 C1, reference compound]",400,400,200,800,400,1600,6300,6300,6300,6300,25,25000,6300,6300
"CN[C@H](CC(C)C)C(=O)N[C@H]1C(=O)N[C@@H](CC(N)=O)C(=O)N[C@H]2C(=O)N[C@H]3C(=O)N[C@H](C(=O)N[C@H](C(=O)O)c4cc(O)cc(O)c4-c4cc3ccc4O)[C@H](O)c3ccc(c(Cl)c3)Oc3cc2cc(c3O[C@@H]2O[C@H](CO)[C@@H](O)[C@H](O)[C@H]2O[C@H]2C[C@](C)(N)[C@H](O)[C@H](C)O2)Oc2ccc(cc2Cl)[C@H]1O [Vancomycin, reference compound]",3100,1600,1600,> 3100,1600,3100,3100,3100,3100,3100,,3100,3100,3100
"AAJ-271 C2 [Compound 2r, reference compound]",800,800,200,1600,800,1600,200,200,12500,25000,12.5,25000,6300,3100
"Ardacin A [Compound 2i, reference compound]",6300,3100,800,> 6300,3100,12500,800,800,25000,50000,25,25000,6300,5100
